Consider 26 compounds from ChEMBL document CHEMBL5236599, “Design, synthesis and biological evaluation of cajanonic acid A analogues as potent PPAR γ antagonists” (Bioorg Med Chem Lett, 2023).

Data set [1] deals with T1, Peroxisome proliferator-activated receptor gamma (Homo sapiens) (UniProt P37231).
T1 sequence (whole entry): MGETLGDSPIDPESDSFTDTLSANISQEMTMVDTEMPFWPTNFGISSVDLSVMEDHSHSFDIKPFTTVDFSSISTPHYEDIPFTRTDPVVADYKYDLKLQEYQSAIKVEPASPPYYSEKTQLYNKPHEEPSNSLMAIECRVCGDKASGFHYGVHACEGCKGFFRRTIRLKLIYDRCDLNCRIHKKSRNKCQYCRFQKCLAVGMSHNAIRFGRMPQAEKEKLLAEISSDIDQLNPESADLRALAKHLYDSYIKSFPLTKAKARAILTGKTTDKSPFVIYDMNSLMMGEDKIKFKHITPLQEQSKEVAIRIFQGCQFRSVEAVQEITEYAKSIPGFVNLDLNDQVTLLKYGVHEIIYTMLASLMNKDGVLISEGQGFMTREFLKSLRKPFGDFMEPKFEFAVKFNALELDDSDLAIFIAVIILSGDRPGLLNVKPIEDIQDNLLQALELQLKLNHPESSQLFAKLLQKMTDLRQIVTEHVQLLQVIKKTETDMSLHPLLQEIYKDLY
The data set is described as follows: Antagonist activity at PPAR-gamma (unknown origin) transfected in human HEK293 cells assessed as decrease in rosiglitazone-induced receptor transactivation at 10 uM by dual-luciferase reporter gene assay relative to control. In kind it is cell-based.

The nature of data set [2]: Induction of insulin-sensitizing activity in insulin-resistant human HepG2 cells assessed as increase in glucose consumption at 0.1 uM relative to control. Format: functional.
Data set [3] is described as follows: Induction of insulin-sensitizing activity in insulin-resistant mouse 3T3-L1 cells assessed as increase in glucose consumption at 0.1 uM relative to control. Format: functional.
Data set [4] addresses T1, Peroxisome proliferator-activated receptor gamma (Homo sapiens). Description: Antagonist activity at PPAR-gamma (unknown origin) transfected in human HEK293 cells assessed as decrease in rosiglitazone-induced receptor transactivation at 1 uM by dual-luciferase reporter gene assay relative to control. In kind it is cell-based. In general terms: Reporter assays use an easily measured gene product as a stand-in for the process of interest.

The nature of data set [5]: Induction of insulin-sensitizing activity in insulin-resistant mouse 3T3-L1 cells assessed as glucose consumption at 0.1 uM (reference value: 3.354 +/- 0.342 mM). Format: functional.
Data set [6] can be described thus: Induction of insulin-sensitizing activity in insulin-resistant human HepG2 cells assessed as glucose consumption at 0.1 uM (reference value: 5.83 +/-0.101 mM). In kind it is functional.
Data set [7] is described as follows: Cytotoxicity against human HepG2 cells assessed as cell viability at 0.1 uM. In kind it is toxicity, cell-based. The conditions noted are these: read-out: Activity.

On to `COc1cc(O)c(C(=O)O)c(CC(=O)c2cccc(-c3ccc(F)cc3)c2)c1CC=C(C)C`, for which the inhibition was determined as 66% in data set [1] (filed as antagonist) and 16% in data set [4]. The Activity in data set [2] was 29.73%; in data set [3] it was 77.02%; in data set [5], 6.637 mM; in data set [6], 7.564 mM.

For `COc1ccc(-c2cccc(C(=O)Cc3c(CC=C(C)C)c(OC)cc(O)c3C(=O)O)c2)cc1`, the results for the inhibition in data set [1] (filed as antagonist) and in data set [4] were 79.5% and 36.9%, respectively. For the same compound, the Activity in data set [2] is recorded as 24.38%; in data set [3], 105.12%; in data set [5], 7.69 mM; in data set [6], 7.252 mM.

With `COc1cc(O)c(C(=O)O)c(CC(=O)c2cccc(-c3ccnc(Cl)c3)c2)c1CC=C(C)C`, the inhibition in data set [1] (filed as antagonist) stood at 92.3%; in data set [4], 19.9%. The viability at 0.1 µM in data set [7] is < 80%. In addition, the Activity was found to be 8.36% in data set [2], 48.82% in data set [3], 5.579 mM in data set [5] and 6.318 mM in data set [6].

For the compound `COc1ccc(-c2cccc(C(=O)Cc3c(CC=C(C)C)c(OC)cc(O)c3C(=O)O)c2)c(F)c1`, the inhibition in data set [1] (filed as antagonist) was 84.7%; in data set [4] it was -0.4%. For the same compound, the Activity in data set [2] is 18.83%; in data set [3], 95.64%; in data set [5] it was 7.335 mM; in data set [6], 6.928 mM.

`COc1cc(O)c(C(=O)O)c(CC(=O)c2cccc(-c3ccc(C)cc3)c2)c1CC=C(C)C`: the inhibition came out at 64.5% in data set [1] (filed as antagonist) and 23.9% in data set [4]. Besides, the Activity in data set [2] is given as 28.49%; in data set [3], 99.73%; in data set [5], 7.488 mM; in data set [6] it was 7.492 mM.

For the compound `COc1cc(CC(=O)c2cccc(-c3cccc(C(F)(F)F)c3)c2)c(C(=O)O)c(O)c1CC=C(C)C`, the results for the inhibition in data set [1] (filed as antagonist) and in data set [4] were 50.9% and -6.1%, respectively. In addition, the Activity in data set [2] amounted to 48.32%; in data set [3], 37.4%; in data set [5], 5.151 mM; in data set [6], 8.649 mM.

Regarding `COc1cc(O)c(C(=O)O)c(CC(=O)c2cccc(-c3ccsc3)c2)c1CC=C(C)C`, the inhibition in data set [1] (filed as antagonist) was 43.7%; in data set [4], 24.3%. In addition, the viability at 0.1 µM in data set [7] is < 80%. Also, the Activity in data set [2] turned out to be 3.71%; in data set [3], 70.82%; in data set [5], 6.404 mM; in data set [6] it was 6.047 mM.

As for `CN(CCOc1ccc(CC2SC(=O)NC2=O)cc1)c1ccccn1` (centres undefined) [ROSIGLITAZONE], the Activity in data set [2] is 22.74%; in data set [3] it was 44.58%; in data set [5], 5.421 mM; in data set [6], 7.15 mM.

As to `COc1ccc(-c2cccc(C(=O)Cc3cc(OC)c(CC=C(C)C)c(O)c3C(=O)O)c2)c(F)c1`, in data set [1], the inhibition is 16.4%. Moreover, the Activity was determined as 37.05% in data set [2], 75.81% in data set [3], 6.591 mM in data set [5] and 7.992 mM in data set [6].

As to `COc1cc(O)c(C(=O)O)c(CC(=O)c2cccc(-c3cccc(C(F)(F)F)c3)c2)c1CC=C(C)C`, the figures for the inhibition in data set [1] and in data set [4] were 39.6% and -2.4%, respectively. The Activity in data set [2] was 42.45%; in data set [3], 71.43%; in data set [5], 6.427 mM; in data set [6] it was 8.306 mM.

Turning to `COc1cc(CC(=O)c2cccc(C3CC3)c2)c(C(=O)O)c(O)c1CC=C(C)C`, the inhibition amounted to 77.7% in data set [1] (filed as antagonist) and 17.7% in data set [4]. For the same compound, the Activity in data set [2] came out at 14.83%; in data set [3], 51.66%; in data set [5], 5.686 mM; in data set [6], 6.696 mM.

Consider `COc1cc(CC(=O)c2cccc(-c3cccnc3)c2)c(C(=O)O)c(O)c1CC=C(C)C`, for which the inhibition in data set [1] came to 31.7%. In data set [7], the viability at 0.1 µM was < 80%. Moreover, the Activity is 18.84% in data set [2], 21.46% in data set [3], 4.554 mM in data set [5] and 6.93 mM in data set [6].

Regarding `COc1cc(CC(=O)c2cccc(-c3cncnc3)c2)c(C(=O)O)c(O)c1CC=C(C)C`, the inhibition stood at 10.3% in data set [1] and 4.6% in data set [4]. The viability at 0.1 µM in data set [7] is < 80%. Also, the Activity amounted to 10.28% in data set [2], 9.11% in data set [3], 4.09 mM in data set [5] and 6.43 mM in data set [6].

On to `CCc1ccc(-c2cccc(C(=O)Cc3c(CC=C(C)C)c(OC)cc(O)c3C(=O)O)c2)cc1`, for which the figures for the inhibition in data set [1] (filed as antagonist) and in data set [4] were 60.2% and -8.3%, respectively. Moreover, the Activity is 40.66% in data set [2], 77.5% in data set [3], 6.655 mM in data set [5] and 8.202 mM in data set [6].

Turning to `COc1cc(CC(=O)c2cccc(-c3ccc(Cl)cc3)c2)c(C(=O)O)c(O)c1CC=C(C)C`, in data set [1], the inhibition worked out at 26.6%. In addition, the Activity in data set [2] turned out to be 39.56%; in data set [3] it was 91.12%; in data set [5], 7.165 mM; in data set [6], 8.138 mM.

For `COc1ccc(-c2cccc(C(=O)Cc3cc(OC)c(CC=C(C)C)c(O)c3C(=O)O)c2)cc1`, the inhibition in data set [1] is 20.8%. The Activity in data set [2] is 27.56%; in data set [3] it was 100.93%; in data set [5], 7.533 mM; in data set [6] it was 7.438 mM.

For the compound `COc1cc(CC(=O)c2cccc(-c3ccccc3Cl)c2)c(C(=O)O)c(O)c1CC=C(C)C`, the inhibition turned out to be 57.5% in data set [1] (filed as antagonist) and 24.1% in data set [4]. The Activity came out at 43.55% in data set [2], 59.21% in data set [3], 5.969 mM in data set [5] and 8.371 mM in data set [6].

For the compound `COc1cc(CC(=O)c2cccc(-c3ccsc3)c2)c(C(=O)O)c(O)c1CC=C(C)C`, the inhibition came out at 47.7% in data set [1] (filed as antagonist) and 7.7% in data set [4]. For the same compound, the Activity in data set [2] came to 39.36%; in data set [3] it was 117.26%; in data set [5], 8.145 mM; in data set [6], 8.126 mM.

Regarding `COc1cc(O)c(C(=O)O)c(CC(=O)c2cccc(-c3ccccc3C(F)(F)F)c2)c1CC=C(C)C`, the inhibition in data set [1] (filed as antagonist) was 80.1%. Also, the Activity in data set [2] is 41.5%; in data set [3], 51.71%; in data set [5] it was 5.688 mM; in data set [6], 8.251 mM.

Turning to `COc1cc(CC(=O)c2cccc(-c3ccc(C)cc3)c2)c(C(=O)O)c(O)c1CC=C(C)C`, the Activity in data set [2] was 35.25%; in data set [3], 105.7%; in data set [5], 7.712 mM; in data set [6], 7.886 mM.

With `COc1cc(O)c(C(=O)O)c(CC(=O)c2ccccc2)c1CC=C(C)C`, the figures for the inhibition in data set [1] and in data set [4] were 39% and 12.9%, respectively. The Activity was 20.66% in data set [2] and 6.729 mM in data set [6].

`COc1cc(O)c(C(=O)O)c(CC(=O)c2cccc(-c3ccc(Cl)cc3)c2)c1CC=C(C)C`: the inhibition in data set [1] (filed as antagonist) was 71%; in data set [4] it was 19.3%. The Activity in data set [2] was 38.76%; in data set [3] it was 93.55%; in data set [5], 7.257 mM; in data set [6], 8.091 mM.

On to `COc1cc(O)c(C(=O)O)c(CC(=O)c2cccc(C3CC3)c2)c1CC=C(C)C`, for which the inhibition worked out at 81.2% in data set [1] (filed as antagonist) and 34.6% in data set [4]. Further, the Activity in data set [2] was 2.94%; in data set [3], 36%; in data set [5], 5.099 mM; in data set [6] it was 6.002 mM.

Turning to `CCc1ccc(-c2cccc(C(=O)Cc3cc(OC)c(CC=C(C)C)c(O)c3C(=O)O)c2)cc1`, the inhibition in data set [1] was 8.1%. Further, the Activity in data set [2] was 36.01%; in data set [3] it was 87.84%; in data set [5] it was 7.042 mM; in data set [6], 7.93 mM.

As for `O=C(Nc1ccccc1)c1cc([N+](=O)[O-])ccc1Cl`, the results for the inhibition in data set [1] (filed as antagonist) and in data set [4] were 99.1% and 10.9%, respectively.

On to `COc1cc(CC(=O)c2cccc(-c3ccnc(Cl)c3)c2)c(C(=O)O)c(O)c1CC=C(C)C`, for which the inhibition in data set [1] was 11.1%; in data set [4], 12.7%. Besides, the Activity stood at 25.88% in data set [2], 46.74% in data set [3], 5.501 mM in data set [5] and 7.34 mM in data set [6].

The inhibition is the drop in the measured response relative to a control, in per cent.
